This note sets out measurements from patent publication US8664277B2, “Compounds and methods for PKCθ inhibition” (Complegen Partners, LLC, priority 2008, dated 2014).

In one experiment the test system is Mouse splenic T cells. The experiment can be described thus: Inhibition of naive T cell activation (anti-CD3/anti-CD28), 3H-TdR incorporation. The following applies: three days, control without compound 31571. Format: cell-based. The protocol: Inhibition of naïve T cell activation by compound 471. Mouse splenic T cells were isolated from unimmunized mice by magnetic negative selection (Miltenyi®, Untouched T Cell Isolation Kit) or FACS using anti-CD3-PE-Cy7. Isolated T cells were incubated in microtiter wells coated with anti-CD3 monoclonal antibody and soluble anti-CD28 monoclonal antibody, 10^5 cells/100 μl in 10% FBS-RPMI as above, for three days. Proliferation was measured by ^3H-TdR incorporation.

For another experiment, the target named is T1, PKC epsilon (Homo sapiens, UniProt Q02156).
T1 construct: expressed in transfected cells; host or cells: yeast (XenoGene strain)
T1 sequence (Q02156 1-737): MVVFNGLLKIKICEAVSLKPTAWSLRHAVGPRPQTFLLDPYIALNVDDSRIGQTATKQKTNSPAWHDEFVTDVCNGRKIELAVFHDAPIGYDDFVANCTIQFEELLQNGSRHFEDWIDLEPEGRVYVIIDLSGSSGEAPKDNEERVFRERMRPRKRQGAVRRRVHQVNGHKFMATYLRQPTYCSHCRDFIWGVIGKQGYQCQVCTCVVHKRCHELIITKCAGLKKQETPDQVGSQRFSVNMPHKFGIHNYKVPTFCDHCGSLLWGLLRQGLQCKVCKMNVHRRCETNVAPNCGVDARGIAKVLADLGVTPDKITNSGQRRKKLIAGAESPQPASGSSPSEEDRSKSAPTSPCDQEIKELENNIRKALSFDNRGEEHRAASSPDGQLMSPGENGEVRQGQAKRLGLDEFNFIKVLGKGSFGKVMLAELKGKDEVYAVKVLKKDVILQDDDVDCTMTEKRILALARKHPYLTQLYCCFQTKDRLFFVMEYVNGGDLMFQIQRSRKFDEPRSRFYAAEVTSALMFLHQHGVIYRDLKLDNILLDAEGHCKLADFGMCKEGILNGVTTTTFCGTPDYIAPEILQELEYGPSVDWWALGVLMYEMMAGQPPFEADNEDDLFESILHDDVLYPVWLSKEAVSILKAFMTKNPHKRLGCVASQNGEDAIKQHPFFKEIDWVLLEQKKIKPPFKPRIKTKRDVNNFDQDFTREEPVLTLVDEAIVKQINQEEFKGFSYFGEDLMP
The experiment can be described thus: XenoGene counter-screen, PKC epsilon. The format is cell-based. As to conditions: inverse of (PKC-theta IC50)/(PKC-X IC50). The procedure: To identify compounds as being selective PKC theta inhibitors the IC50 values are determined against XenoGene™ strains containing other XenoGenes™, especially certain other PKC genes (see Example 10).
Human PKC theta gene (cDNA) was used to generate a XenoGene™ system as previously described (U.S. Pat. Nos. 6,998,261, 6,232,074), which was used to screen compounds in a chemical compound library. XenoGene™ systems used as counter-screens were constructed similarly using the gene for the appropriate counter-screen target. In particular, human genes (cDNA) encoding PKC delta, PKC eta and PKC epsilon were used to generate XenoGene™ systems.
In general terms: A counterscreen serves to expose hits that act by an unwanted route or on another target.

Turning to `CC(C)(C)c1ccc(Oc2ccc(N)cc2)cc1` [Compound 471], the 3H-TdR cpm with Mouse splenic T cells (0.5 uM compound) turned out to be 21928 cpm; in the experiment with Mouse splenic T cells (1.0 uM compound), 880 cpm. Also, on PKC epsilon, the “Selectivity for PKC-theta v. PKC-epsilon” value turned out to be 1.1.
